pIC50: −log10 of the molar value.
How the values were obtained:
[1] = tested on: SK-OV-3; experiment: Antiproliferative activity against human SKOV3 cells assessed as cell growth inhibition measured after 48 hrs by MTT assay; format: functional, cell-based; details: SK-OV-3, 48 h
[2] = tested on: HepG2; experiment: Antiproliferative activity against human HepG2 cells assessed as cell growth inhibition measured after 48 hrs by MTT assay; format: functional, cell-based; details: HepG2, 48 h
[3] = tested on: A549; experiment: Antiproliferative activity against human A549 cells assessed as cell growth inhibition measured after 48 hrs by MTT assay; format: functional, cell-based; details: A549, 48 h
[4] = tested on: T-24; experiment: Antiproliferative activity against human T24 cells assessed as cell growth inhibition measured after 48 hrs by MTT assay; format: functional, cell-based; details: T-24, 48 h
[5] = tested on: SMMC-7721; experiment: Antiproliferative activity against human SMMC7721 cells assessed as cell growth inhibition measured after 48 hrs by MTT assay; format: functional, cell-based; details: SMMC-7721, 48 h
[6] = tested on: L02; experiment: Cytotoxicity against human HL7702 cells assessed as cell growth inhibition measured after 48 hrs by MTT assay; format: cell-based; details: L02, 48 h

Row | pIC50 [1] | pIC50 [2] | pIC50 [3] | pIC50 [5] | Structure (SMILES) | pIC50 [4] | pIC50 [6]
1 | 4.23 | 4.29 | 4.36 | < 4.00 | O=C1c2cccc3cc([N+](=O)[O-])cc(c23)C(=O)N1Nc1nc2ccccc2s1 | 4.51 | 4.19
2 | 4.38 | 4.62 | 4.35 | 4.26 | O=C1c2cccc3cc([N+](=O)[O-])cc(c23)C(=O)N1c1ccc2[nH]c(=O)[nH]c2c1 | 4.24 | < 4.00
